# Test results taken from patent US11279944B2, “Of herbicide tolerance to 4-hydroxyphenylpyruvate dioxygenase (HPPD) inhibitors by down-regulation of HPPD expression in soybean” (BASF AGRICULTURAL SOLUTIONS SEED US LLC, priority 2017, dated 2022).
# Columns and labels:
# [1] = tested on: soybean plants transformed by pCPE826 (Pf-Evo41+HPPD-Gm RNAi); assay: Field trial of the T1 generation, herbicide tolerance; conditions: in vivo
# From the text: (§1) The above result was confirmed in a field trial of the T1 generation.
# [2] = tested on: soybean plants transformed by pMLS0519 (Pf-KGEPHSVV); assay: as above; assay type: in vivo; conditions: Puerto Rico, among the most effective constructs
# From the text: as §1
compound,measurement,setting,value
"CS(=O)(=O)c1cc(C(F)(F)F)ccc1C(=O)c1cnoc1C1CC1 [Isoxaflutole, (5-cyclopropyl-4-isoxazolyl)[2-(methylsulfonyl)-4-(trifluoromethyl)phenyl]methanone]",tolerance to HPPD inhibitor,[1],good tolerance
same,tolerance to HPPD inhibitor,[2],good tolerance
